Assays:
[1] = MTT cell viability assay, murine primary hepatocytes; type: cell-based, BALB/c mice; conditions: BALB/c, mouse
From the text: Primary human hepatocytes were isolated from liver segments obtained from adult patients undergoing partial hepatectomy (Service de Chirurgie Digestive, Hépato-Bilio Pancréatique, Hôpital Pitié Salpêtrière, Paris, France). Primary simian hepatocytes were isolated from liver segments collected from healthy Macaca fascicularis monkeys from CEA, Fontenay aux Roses, France. All hepatocytes were obtained using collagenase perfusion as previously described ([40]). Simian hepatocytes were immediately cryopreserved with a Nicool-Freezal controlled rate freezer (Air Liquide Santé, Marne la Vallée, France) and then used when needed after fast thawing at 37°C. Primary murine hepatocytes were isolated from liver segments collected from BALB/c mice. Human and murine hepatocytes were used directly after their isolation. Cells were seeded in 96-well plates (Falcon; Becton Dickinson Labware Europe, France) coated with collagen I (BD Bioscience, USA) at a density of 80,000 cells per well. […]
The toxicity of M1 toward primary hepatocytes and HepG2-CD81 cells was evaluated through the MTT {[3-(4,5-dimethyl-2-thiazolyl)-2,5-diphenyl-2H-tetrazolium bromide]} test ([42]). […] Then, MTT was replaced by a mixture of DMSO-ethanol (1:1) to dissolve formazan crystals and the absorbance was read at 540 nm on a FlexStation plate reader.

[2] = tested on: P. yoelii (GFP-luc strain); assay: In vivo liver-stage assay in mice infected with P. yoelii sporozoites; parameters: species or system BALB/c mice
Procedure: Five mice per treatment group were used. Experimental groups were treated with 50 and 100 mg/kg of M1 intraperitoneally (i.p.). Untreated infected mice and noninfected mice (infection controls), as well as primaquine-treated (50 mg/kg) mice (control drug), were also included. The drugs were administered on days −1, 0, and +1, and mice were challenged on day zero by retroorbital injection of P. yoelii (GFP-luc strain) sporozoites (10,000 per mouse). In vivo bioluminescence imaging was performed 44 h postinfection on day 2, to assess liver-stage development. When parasites were detected in the liver, treatment was continued until day 5 and in vivo imaging was performed on days 3 and 6, to evaluate a prepatent period for the blood-stage parasites in mice after the sporozoite inoculation. In vivo imaging and blood smears were performed to monitor blood-stage development using methods described previously ([45]). This experiment was performed twice.
IVIS Spectrum (Caliper Life Science, Hanover, MD) was used to capture bioluminescence signals. Prior to analysis, the mice were injected i.p. with D-luciferin (100 mg/kg), anesthetized with isoflurane, and imaged 10 min postinjection. Images were analyzed using the Living Image 3.0 software (Caliper Life Sciences, Hanover, MD).
In order to study the in vivo efficacy of M1 without any hepatic CYP metabolism, we conducted an experiment using 1-aminobenzotriazole (ABT), a nonselective inhibitor of cytochrome P450 enzymes ([34], [35]). ABT was administered to mice i.p. 1 h before each treatment with 50 mg/kg gamhepathiopine for 3 days starting from the day before sporozoite inoculation.

Microsomal stability = type: in vitro ADME; conditions: pH 7.4; female mouse microsomes (CD-1), 37°C; read-out: half-life (t1/2)
Procedure: The tested product and propranolol, used as a reference, were incubated in duplicate (reaction mixture volume of 0.5 ml) with female mouse microsomes (CD-1, 20 mg/ml; BD Gentest) at 37°C in a 50 mM phosphate buffer, pH 7.4, in the presence of MgCl2 (5 mM), NADP (1 mM), glucose-6-phosphate dehydrogenase (G6PD) (0.4 U/ml), and glucose-6-phosphate (5 mM). For the estimation of the intrinsic clearance, 50-μl aliquots were collected at 0, 5, 10, 20, 30, and 40 min and the reaction was stopped with 4 volumes of acetonitrile (ACN) containing the internal standard. After centrifugation at 10,000 × g for 10 min at 4°C, the supernatants were conserved at 4°C for immediate analysis or placed at −80°C in case of postponement of the analysis. Controls (time zero and final time point) in triplicate were prepared by incubation of the internal standard with microsomes denatured by acetonitrile. […] The chromatographic analysis, with a total duration of 4 min, was made with the following gradient: 0 < t < 0.2 min, 2% mobile phase B; 0.2 < t < 2 min, linear increase to 98% mobile phase B; 2 < t < 2.5 min, 98% mobile phase B; 2.5 < t < 2.6 min, linear decrease to 2% mobile phase B; 2.6 < t < 4 min, 2% mobile phase B. The quantification of each compound was obtained by converting the average of the ratios of the analyte/internal standard surfaces to the percentage of consumed product. […]

Q: Which CC50 at 2 days [1] does the source give for `Cc1ccc(-c2cc3nc(NC(C)(C)C)[nH]c(=O)c3s2)cc1` [Metabolite M1, 2-(tert-Butylamino)-6-(p-tolyl)thieno[3,2-d]pyrimidin-4(3H)-one] here?
A: > 60 µM

Q: And the “development of liver-stage parasites in vivo at day 2” value ([2]; 50 mg/kg i.p., 44 h postinfection, bioluminescence)?
A: did not prevent the development of liver-stage parasites

Q: And the “blood-stage parasitemia after sporozoite infection” value ([2]; 50 mg/kg, blood smears days 3 and 6)?
A: reduced the burden of blood-stage parasites

Q: And the “in vivo activity against the hepatic stages with ABT cotreatment” value ([2]; M1 50 mg/kg with 1-aminobenzotriazole 50 mg/kg i.p.)?
A: improved

Q: And the half-life (Microsomal stability)?
A: 11 min

From PMC8557901 (Microbiology Spectrum, 2021)
